# Reference: publication PMC11747885, “Potent inhibitors of the human RNA ligase Rlig1 highlights its role in RNA integrity maintenance under oxidative cellular stress” (Chemical Science, 2025)
# Where “and” joins values, the source holds several entries; their conditions need not be identical. Equal values may be shown once. Entries after “also recorded” stand apart in the source; their conditions may differ. Marks after values point to notes of the source that are not given here.
# Assays:
# [1] = ref MedChemExpress, cited from earlier work; for solubility, DMSO: in DMSO; for solubility, H2O: in H2O
# Rlig1-AMP [2] = molecular target: T1, Rlig1-AMP (Homo sapiens, UniProt Q8N999); assay: FRET-based high-throughput screening of inhibitors for Rlig1-AMP; assay type: biochemical; details: sheet HTS hits; for 1-D Distance.npi: MedChemExpress library; for 1-D Distance: difference of raw data w/o and w enzyme; for Raw data [w Enyzm]: with enzyme; for Raw data [w/o Enzym]: without enzyme
# T1 construct: made in house; host or cells: E. coli BL21 (DE3), pET15b-Rlig1
# HEK293 cells [3] = assay: Cell viability assay of HEK293 cells treated with inhibitors (CellTiter-Glo)
# [4] = Cell viability assay of HEK293 cells treated with inhibitors and menadione; assay type: cell-based, human; details: human, HEK293 cells, w/o Menadione; for viability at 7.5 µM: 7.5 µM compound; for viability at 15 µM: 15 µM compound; for viability at 30 µM: 30 µM compound; for viability at 60 µM: 60 µM compound
# HEK293 cells [5] = assay: as above; assay type: cell-based, human; details: for Mean Diff, (Predicted (LS) mean diff,) w/o menadione - w menadione: 2 way ANOVA, Šídák's multiple comparisons test, normalised viability
# Rlig1-AMP [6] = molecular target: T1, Rlig1-AMP; assay: Radioactive RNA ligation assay (hit validation, 10 µM test and IC50 determination); assay type: biochemical
# in vitro = details: human
# [7] = 20240508 plate 012, DMSO Ko no Mendione = 100
# [8] = 20240508 plate 013, DMSO Ko no Mendione = 100
# [9] = 20240515 plate 014, DMSO Ko no Mendione = 100
# [10] = 20240515 plate 015, DMSO Ko no Mendione = 100
# [11] = log(inhibitor) vs. response, variable slope (four parameters)
# T1 sequence (Q8N999 whole entry): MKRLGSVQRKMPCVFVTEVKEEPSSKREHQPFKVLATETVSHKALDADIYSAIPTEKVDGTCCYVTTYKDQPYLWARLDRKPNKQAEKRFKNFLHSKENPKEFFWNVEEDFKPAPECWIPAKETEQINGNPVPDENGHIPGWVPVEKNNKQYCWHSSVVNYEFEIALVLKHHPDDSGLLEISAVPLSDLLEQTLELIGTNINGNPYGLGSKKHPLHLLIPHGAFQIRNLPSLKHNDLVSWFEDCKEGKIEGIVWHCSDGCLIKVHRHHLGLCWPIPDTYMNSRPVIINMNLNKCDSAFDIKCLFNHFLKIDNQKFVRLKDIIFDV
smiles,measurement,setting,value
COc1cccc2c1C(=O)c1c(O)c3c(c(O)c1C2=O)C[C@@](O)(C(C)=O)C[C@@H]3O[C@H]1C[C@H](N)[C@H](O)[C@H](C)O1.Cl [Daunorubicin (hydrochloride)],"solubility, DMSO",[1],50 mg/mL
same,"solubility, H2O",[1],≥ 34 mg/mL
same,1-D Distance.npi,Rlig1-AMP [2],94.9773
same,1-D Distance,Rlig1-AMP [2],667
same,Raw data [w Enyzm],Rlig1-AMP [2],1522
same,Raw data [w/o Enzym],Rlig1-AMP [2],2189
COC(=O)/C=C/c1ccc(O)c(O)c1 [Methyl caffeate],"solubility, DMSO",[1],DMSO : 33.33 mg/mL (171.64 mM; ultrasonic and warming and heat to 60°C)
same,1-D Distance,Rlig1-AMP [2],1343
same,Raw data [w Enyzm],Rlig1-AMP [2],9476
same,Raw data [w/o Enzym],Rlig1-AMP [2],10819
C[C@]12C=CC(=O)N[C@@H]1CC[C@@H]1[C@@H]2CC[C@]2(C)[C@@H](C(=O)Nc3cc(C(F)(F)F)ccc3C(F)(F)F)CC[C@@H]12 [Dutasteride],"solubility, DMSO",[1],DMSO : 33.33 mg/mL (63.06 mM; Need ultrasonic)
same,1-D Distance,Rlig1-AMP [2],1706
same,Raw data [w Enyzm],Rlig1-AMP [2],9054
same,Raw data [w/o Enzym],Rlig1-AMP [2],10760
CO[C@H]1/C=C/O[C@@]2(C)Oc3c(C)c(O)c4c(O)c(c(/C=N/N5CCN(C6CCCC6)CC5)c(O)c4c3C2=O)NC(=O)/C(C)=C\C=C\[C@H](C)[C@H](O)[C@@H](C)[C@@H](O)[C@@H](C)[C@H](OC(C)=O)[C@@H]1C [Rifapentine],"solubility, DMSO",[1],≥ 50 mg/mL
same,"solubility, H2O",[1],< 0.1 mg/mL
same,1-D Distance,Rlig1-AMP [2],1003
same,Raw data [w Enyzm],Rlig1-AMP [2],7400
same,Raw data [w/o Enzym],Rlig1-AMP [2],6397
O=C1c2ccccc2-c2nc3nonc3nc21 [SMER3],"solubility, DMSO",[1],DMSO : 12.5 mg/mL (55.76 mM; Need ultrasonic)
same,1-D Distance.npi,Rlig1-AMP [2],102.522
same,1-D Distance,Rlig1-AMP [2],157
same,Raw data [w Enyzm],Rlig1-AMP [2],13928
same,Raw data [w/o Enzym],Rlig1-AMP [2],13771
CCCCCCCCCCCCCCCC[n+]1ccccc1.O.[Cl-] [Cetylpyridinium (chloride monohydrate)],"solubility, DMSO",[1],20 mg/mL
same,"solubility, H2O",[1],≥ 100 mg/mL
Nc1cc(Nc2ccc(NC(=O)c3ccc(Nc4ccnc5ccccc45)cc3)cc2)ccn1 [Compound 36],cytotoxicity (in words),"HEK293 cells [3]; HEK293, 24 h, up to 30 μM",no detectable cytotoxicity
same,IC50 (Figure 3D: EC50 values for plot; log(inhibitor) vs. response -- Variable slope (four parameters)),"HEK293 cells [3]; HEK293 cell viability, fit per plate (3 plates, 4 technical replicates each), highest tested concentration 30 µM",2607.3 µM and 1652.85 µM and 299.495 µM
same,LogIC50 (log(inhibitor) vs. response -- Variable slope (four parameters)),"HEK293 cells [3]; HEK293 cell viability, fit per plate (3 plates, 4 technical replicates each), log of [µM]",3.416 and 3.218 and 2.476
same,EC50,"HEK293 cells [3]; Homo sapiens, HEK293, 24 h",> 30 µM
same,viability at 7.5 µM,[4]; [7],91%
same,viability at 7.5 µM,[4]; [8],101%
same,viability at 7.5 µM,[4]; [9],96%
same,viability at 7.5 µM,[4]; [10],89%
same,viability at 15 µM,[4]; [7],98.9%
same,viability at 15 µM,[4]; [8],99.3%
same,viability at 15 µM,[4]; [9],94.8%
same,viability at 15 µM,[4]; [10],94.9%
same,viability at 30 µM,[4]; [7],85.2%
same,viability at 30 µM,[4]; [8],98.7%
same,viability at 30 µM,[4]; [9],89.7%
same,viability at 30 µM,[4]; [10],81.9%
same,viability at 60 µM,[4]; [7],82.1%
same,viability at 60 µM,[4]; [8],89.4%
same,viability at 60 µM,[4]; [9],88.4%
same,viability at 60 µM,[4]; [10],79.5%
same,"Mean Diff, (Predicted (LS) mean diff,) w/o menadione - w menadione",HEK293 cells [5]; 7.5 µM compound,8.308
same,"Cell viability raw signal, technical replicates","HEK293 cells [5]; 7.5 µM compound, w Menadione (40µM), 20240508 plate 012",27030 and 23198 and 28223 and 26549
same,"Cell viability raw signal, technical replicates","HEK293 cells [5]; 7.5 µM compound, w Menadione (40µM), 20240508 plate 013",27603 and 23558 and 27792 and 26913
same,"Cell viability raw signal, technical replicates","HEK293 cells [5]; 7.5 µM compound, w Menadione (40µM), 20240515 plate 014",28096 and 25755 and 28850 and 30838
same,"Cell viability raw signal, technical replicates","HEK293 cells [5]; 7.5 µM compound, w Menadione (40µM), 20240515 plate 015",27895 and 33778 and 30188 and 31212
same,"Cell viability raw signal, technical replicates","HEK293 cells [5]; 7.5 µM compound, w/o Menadione, 20240508 plate 012",385210 and 396370 and 371980 and 372320
same,"Cell viability raw signal, technical replicates","HEK293 cells [5]; 7.5 µM compound, w/o Menadione, 20240508 plate 013",405510 and 393590 and 402690 and 387370
same,"Cell viability raw signal, technical replicates","HEK293 cells [5]; 7.5 µM compound, w/o Menadione, 20240515 plate 014",380800 and 387250 and 402000 and 397370
same,"Cell viability raw signal, technical replicates","HEK293 cells [5]; 7.5 µM compound, w/o Menadione, 20240515 plate 015",356280 and 367960 and 366010 and 366080
same,"Mean Diff, (Predicted (LS) mean diff,) w/o menadione - w menadione",HEK293 cells [5]; 15 µM compound,17.8
same,"Cell viability raw signal, technical replicates","HEK293 cells [5]; 15 µM compound, w Menadione (40µM), 20240508 plate 012",22111 and 21413 and 21368 and 22937
same,"Cell viability raw signal, technical replicates","HEK293 cells [5]; 15 µM compound, w Menadione (40µM), 20240508 plate 013",69935* and 23670 and 27045 and 22274
same,"Cell viability raw signal, technical replicates","HEK293 cells [5]; 15 µM compound, w Menadione (40µM), 20240515 plate 014",28312 and 27245 and 29168 and 29878
same,"Cell viability raw signal, technical replicates","HEK293 cells [5]; 15 µM compound, w Menadione (40µM), 20240515 plate 015",27690 and 32043 and 28425 and 26586
same,"Mean Diff, (Predicted (LS) mean diff,) w/o menadione - w menadione",HEK293 cells [5]; 30 µM compound,11.65
same,"Cell viability raw signal, technical replicates","HEK293 cells [5]; 30 µM compound, w Menadione (40µM), 20240508 plate 012",24245 and 20350 and 24935 and 20723
same,"Cell viability raw signal, technical replicates","HEK293 cells [5]; 30 µM compound, w Menadione (40µM), 20240508 plate 013",21997 and 20914 and 24666 and 21857
same,"Cell viability raw signal, technical replicates","HEK293 cells [5]; 30 µM compound, w Menadione (40µM), 20240515 plate 014",26699 and 30187 and 27245 and 26622
same,"Cell viability raw signal, technical replicates","HEK293 cells [5]; 30 µM compound, w Menadione (40µM), 20240515 plate 015",24014 and 26245 and 23994 and 40225
same,"Cell viability raw signal, technical replicates","HEK293 cells [5]; 30 µM compound, w/o Menadione, 20240508 plate 012",348650 and 347840 and 366110 and 365510
same,"Mean Diff, (Predicted (LS) mean diff,) w/o menadione - w menadione",HEK293 cells [5]; 60 µM compound,4.361
same,"Cell viability raw signal, technical replicates","HEK293 cells [5]; 60 µM compound, w Menadione (40µM), 20240508 plate 012",158210* and 163010* and 19082* and 18545*
same,"Cell viability raw signal, technical replicates","HEK293 cells [5]; 60 µM compound, w Menadione (40µM), 20240508 plate 013",166210* and 174600* and 20028* and 18681*
same,"Cell viability raw signal, technical replicates","HEK293 cells [5]; 60 µM compound, w Menadione (40µM), 20240515 plate 014",33336 and 33031 and 28059 and 24828
same,"Cell viability raw signal, technical replicates","HEK293 cells [5]; 60 µM compound, w Menadione (40µM), 20240515 plate 015",185100* and 184480* and 111650* and 66878*
same,"Cell viability raw signal, technical replicates","HEK293 cells [5]; 60 µM compound, w/o Menadione, 20240508 plate 012",344220 and 331510 and 355900 and 344190
same,"Cell viability raw signal, technical replicates","HEK293 cells [5]; 60 µM compound, w/o Menadione, 20240508 plate 013",348460 and 354210 and 355750 and 353860
same,"Cell viability raw signal, technical replicates","HEK293 cells [5]; 60 µM compound, w/o Menadione, 20240515 plate 014",336500 and 373330 and 357790 and 375230
same,"Cell viability raw signal, technical replicates","HEK293 cells [5]; 60 µM compound, w/o Menadione, 20240515 plate 015",321900 and 321160 and 330420 and 326560
same,inhibition of Rlig1-AMP ligation (urea-PAGE),"Rlig1-AMP [6]; 10 μM compound, 500 nM Rlig1-AMP, 20 min 37 °C",Ligation was inhibited; also recorded: fully inhibited
same,HillSlope (best-fit value),Rlig1-AMP [6]; four-parameter fit,3.369
same,Span (best-fit value),Rlig1-AMP [6]; four-parameter fit,96.63
same,IC50,"Rlig1-AMP [6]; four-parameter fit, n = 3, read-out: IC50 (best-fit value)",3.86 µM
same,inhibition at 30 µM,"Rlig1-AMP [6]; log Compound [µM] 1.47712, replicates I-III, read-out: percentage inhibition (dose response curve for IC50)",100%
same,inhibition at 0.9375 µM,"Rlig1-AMP [6]; log Compound [µM] -0.0280287, replicates I-III, read-out: percentage inhibition (dose response curve for IC50)",5.58%
same,inhibition at 0.46875 µM,"Rlig1-AMP [6]; log Compound [µM] -0.329059, replicates I-III, read-out: percentage inhibition (dose response curve for IC50)",2.58%
same,LogIC50 (best-fit value),"Rlig1-AMP [6]; log of µM, four-parameter fit",0.5866
same,Bottom (best-fit value),Rlig1-AMP [6]; [11],4.368
same,Top (best-fit value),Rlig1-AMP [6]; [11],101
same,"viability at 24 h, 0.234375 µM",in vitro,106%
same,"viability at 24 h, 0.46875 µM",in vitro,99.9%
same,"viability at 24 h, 0.9375 µM",in vitro,104%
same,"viability at 24 h, 1.875 µM",in vitro,99.2%
same,"viability at 24 h, 3.75 µM",in vitro,93.6%
same,"viability at 24 h, 7.5 µM",in vitro,93.9%
same,"viability at 24 h, 15 µM",in vitro,86.8%
same,"viability at 24 h, 30 µM",in vitro,90.4%
CCCCCCCCCCCCCCCC[n+]1ccccc1.[Cl-] [Cetylpyridinium (chloride)],"solubility, DMSO",[1],DMSO : 100 mg/mL (294.13 mM; Need ultrasonic); H2O : 100 mg/mL (294.13 mM; Need ultrasonic)
same,"solubility, H2O",[1],DMSO : 100 mg/mL (294.13 mM; Need ultrasonic); H2O : 100 mg/mL (294.13 mM; Need ultrasonic)
